Test: Delivery and clearance of fluorescent molecule in suprachoroidal space of live rabbits
Type: in vivo
Details: live rabbit
Procedure: The delivery of a fluorescent molecule (sodium fluorescein) to the suprachoroidal space was evaluated using rabbits according to approved live animal experimental protocols. A one dimensional scan of the eye (through line of sight) was taken within the first five minutes after injection to determine the dispersion of the fluorescent molecule in the eye (FIG. 14). The y-axis indicates the fluorescent intensity (i.e., the concentration) and the x-axis represents the position in the eye from front (160) to back (0). Thus, the results illustrate that within the first 5 minutes after injection, the fluorescein had already flowed through the suprachoroidal space to the back of the eye, with some remaining at the initial insertion site.
Similar scans were taken to evaluate the rate of clearance of fluorescein from the suprachoroidal space over time (FIG. 15). The fluorescent intensity was measured in two regions of the eye (the suprachoroidal space and mid-vitreous region) over time.

O=C1OC2(c3ccc(O)cc3Oc3cc(O)ccc32)c2ccccc21 [sodium fluorescein]
Distribution suprachoroidal space vs mid-vitreous region (fluorescent intensity over time): remains in the suprachoroidal space without passing into the mid-vitreous region | Time to substantial clearance from the suprachoroidal space (suprachoroidal injection): ≤ 24 h | Time after injection by which it had flowed through the suprachoroidal space to the back of the eye (suprachoroidal injection, line of sight scan): ≤ 5 min
